Patent US12060408B2, “Screening assays, modulators and modulation of activation of Receptor for Advanced Glycation End-products (RAGE)” (Monash University, priority 2017, dated 2024)
Ends that are not written are not given here.

Assays:
[1] = test system: RAGE; test: Ang II-induced pro-inflammatory signalling (p65-NFκB expression) in AT1R-CHO / RAGE-AT1R-CHO cells; assay type: cell-based, human; details: pre-treatment with mCherry-S391A-RAGE362-404 0.4 ng/ml; FIG. 10G
[2] = test system: RAGE ligand-independent activation of RAGE by activated AT1R; test: Ang II-induced NFκB activation (p65 gene expression, SEAP reporter) in AT1R-CHO cells with RAGE constructs; assay type: cell-based, human; details: summary statement, cell system not given
Procedure: (§1) Generation of Transgenic Chinese Hamster Ovary Cells
(§2) 100 ng of AT1R-Rluc8 construct was transfected into CHO cells using Lipofectamine 2000 (Thermo). Stable transfectants were selected using G418. AT1R—CHO were then transiently transfected with RAGE constructs using Lipofectamine 2000 (Invitrogen) and incubated for 16 h. The Homo sapiens AGER transcript variant 1 coding sequence (NM_001136) was synthesised and cloned between the NheI and XbaI sites of pCIneo (Promega) to generate the vector pCIneo-RAGE. This plasmid was then used to generate a library of mutant AGER clones (NP_001127). Primers 1-RAGE-SP-5′ and mCherry-XhoI-NotI-3′ were used to amplify the coding sequence of mCherry from the vector pmCherry-C1. The resultant PCR product was then used as template for a second PCR using primers 2-RAGE-SP-5′ and mCherry-XhoI-NotI-3′. The PCR product generated was digested with NheI and NotI and inserted between the NheI and NotI sites of pCIneo to generate pCIneo-SP-mCherry. The sequence of the insert was confirmed by DNA sequencing (Micromon, Monash University). […]
(§3) Cellular Expression of Pro-Inflammatory Markers and Mediators by Quantitative Real-Time PCR
(§4) After 2 hours of exposure to Ang II (1 μM) or the RAGE ligand, S100A8/A9 (5 ng/ml) cells were placed in Trizol, mRNA extracted and cDNA synthesized. Changes in the gene expression of the NFκB subunit, p65 (RelA) or NFκB-activated target genes (e.g ICAM-1, VCAM-1) were estimated by quantitative real-time RT-PCR, performed using the TaqMan system based on real-time detection of accumulated fluorescence (ABI Prism 7700, Perkin-Elmer Inc, PE Biosystems, Foster City, CA, USA). Gene expression was normalized to 18S mRNA and reported as fold change compared to the level of expression in untreated control mice/cells, which were given an arbitrary value of 1.
Oligopeptides (Cherry-TAT (control), mCherry-TAT-RAGE362-404 and mCherry-S391A-TAT-RAGE362-404 were generated by transformation of the Escherichia coli strain ClearColi BL21 (DE3; Lucigen). A single transformed colony was inoculated into 50 ml 2YT medium containing 100 μg/ml ampicillin and the culture was grown overnight at 37° C. with shaking at 250 rev/min. 10 ml overnight culture was used to inoculate 1 litre 2YT medium containing 100 μg/ml ampicillin and the culture was grown at 37° C. with shaking at 250 rev/min. When the cultures reached an OD600 of 0.8, the temperature was shifted to 15° C. for 30 min after which protein expression was induced by the addition of 1 mM isopropyl β-D-1-thiogalacto-pyranoside (IPTG). Following the addition of IPTG the cultures were grown for ˜16 h at 15° C. with shaking at 250 rev/min. Cells were harvested by centrifugation (3500 g, 4° C., 20 min) and resuspended in ice-cold lysis buffer (50 mM Tris pH 7.4, 300 mM NaCl, 10 mM imidazole and 5 mM beta-mercaptoethanol). The resuspended cells were sonicated and insoluble material was pelleted by centrifugation (13 000 g, 4° C., 30 min). The supernatant was filtered (0.2 μm) and applied onto a gravity-flow column with a 1 ml Ni-NTA Agarose resin bed volume (Qiagen) pre-equilibrated with lysis buffer. After the supernatant was passed over the resin, the column was washed with 100 ml of wash buffer (20 mM imidazole, 50 mM Tris pH 7.4, 150 mM NaCl, 5 mM beta-mercaptoethanol). His-tagged TAT-mCherry and TAT-mCherry-RAGE peptides were eluted from the resin using elution buffer (250 mM imidazole, 50 mM Tris pH 7.4, 150 mM NaCl, 5 mM beta-mercaptoethanol). […]

[3] = test system: RAGE ligand-dependent activation of RAGE; test: S100A8/A9-induced NFκB activation (p65 gene expression) in CHO cells expressing RAGE constructs; assay type: cell-based, human; details: summary statement, cell system not given
Procedure: as §1, §2, §3, §4
To measure the induction of NFκB activity by 1 μM Ang II, or 5 ng/ml of the RAGE-ligand S100A8/A9 as a signalling control, AT1R—CHO cells were transfected with 0.4 μg of plasmids encoding NFκB-SEAP or β-galactosidase (β-Gal) using Lipofectamine 2000 (Invitrogen) as per manufacturer's instructions. After 24 hours, cells transfected with each plasmid combination were then treated with Ang II (1 μM) or left untreated and incubated for 4 hours before cell supernatants and cell lysates were collected. Cell supernatants were analysed using a chemiluminescent SEAP reporter gene assay (Roche Applied Science) to detect SEAP production after treatment. To control for transfection efficiency, cell lysates were assayed for β-Gal using a commercially available kit (Promega).

[4] = test system: murine SVEC; test: Induction of ICAM-1 by Ang II in murine SVEC transfected with RAGE constructs (RT-PCR); assay type: cell-based, mouse; details: transfected construct (FIG. 12)
Text: FIG. 12A. The effect of transfection of murine SVEC with RAGE or RAGE mutants on the induction of ICAM-1 by Ang II compared to vector alone (pc-Neo) as a control, as measured by RT-PCR. Data are mean±SEM; n=6-8 per group. * vs untreated control, # vs neo+Ang II, p<0.05.
FIG. 12B. The effect of transfection with truncated RAGE mutants on the induction of ICAM-1 by Ang II in murine SVEC to identify the smallest fragments with inhibitory activity. Data are mean±SEM; n=6-8 per group, * vs no treatment control, p<0.05.
FIG. 12D. The effect of transfection with single site-specific alanine or lysine mutants of RAGE370-390 on the induction of ICAM-1 by Ang II in murine SVEC. Data are mean±SEM; n=6-8 per group, * vs no treatment control, p<0.05.
as §3
as §4, with “Gene expression was normalized to 18S mRNA and reported as fold change compared to the level of expression in untreated control mice/cells, which were given an arbitrary value of 1.” left out

[5] = target: T1, CCR2 (Homo sapiens, UniProt P41597); test: Receptor-HIT BRET, β-arrestin2/Venus with RAGE/Rluc8 and CCR2; assay type: cell-based
T1 construct: expressed in transfected cells; host or cells: HEK293FT, transient
T1 sequence (P41597 whole entry): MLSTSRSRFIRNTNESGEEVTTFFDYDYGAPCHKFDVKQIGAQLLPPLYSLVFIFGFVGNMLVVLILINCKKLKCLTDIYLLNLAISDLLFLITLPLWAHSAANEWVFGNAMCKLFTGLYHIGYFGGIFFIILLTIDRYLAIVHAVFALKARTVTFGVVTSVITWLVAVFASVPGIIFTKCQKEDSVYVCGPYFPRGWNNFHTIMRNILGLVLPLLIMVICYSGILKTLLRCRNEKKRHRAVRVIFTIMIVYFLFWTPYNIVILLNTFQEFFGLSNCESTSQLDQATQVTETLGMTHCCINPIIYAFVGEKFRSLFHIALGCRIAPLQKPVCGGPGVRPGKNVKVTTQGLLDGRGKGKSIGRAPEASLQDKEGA
T1 sequence (P32121 whole entry partner): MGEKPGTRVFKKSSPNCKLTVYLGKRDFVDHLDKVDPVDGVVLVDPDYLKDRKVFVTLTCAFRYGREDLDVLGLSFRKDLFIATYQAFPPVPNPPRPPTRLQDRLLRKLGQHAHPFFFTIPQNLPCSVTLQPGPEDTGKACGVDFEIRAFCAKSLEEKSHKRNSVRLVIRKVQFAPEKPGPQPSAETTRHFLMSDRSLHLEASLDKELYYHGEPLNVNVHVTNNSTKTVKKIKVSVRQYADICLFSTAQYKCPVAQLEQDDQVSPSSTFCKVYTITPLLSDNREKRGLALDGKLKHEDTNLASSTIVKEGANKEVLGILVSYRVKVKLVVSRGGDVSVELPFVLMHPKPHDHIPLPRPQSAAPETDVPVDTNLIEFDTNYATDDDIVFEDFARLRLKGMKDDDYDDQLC
Text: (§5) Bioluminescence Resonance Energy Transfer (BRET)
(§6) BRET is an established technology for studying protein-protein proximity in live cells, particularly involving GPCRs (Pfleger and Eidne, 2006). One protein of interest was linked to a bioluminescent donor enzyme, Rluc8, a variant of Renilla luciferase, and a second linked to an acceptor fluorophore, Venus, a variant of green fluorescent protein. If in close proximity (<10 nm), energy resulting from the rapid oxidation of a cell-permeable coelenterazine substrate by the donor can transfer to the acceptor, which in turn fluoresces at a longer characteristic wavelength.
(§7) Plasmids were transiently co-expressed in human embryonic kidney (HEK) 293FT cells and BRET measurements taken at 37° C. using a POLARstar Omega or LUMIstar plate reader (BMG Labtech, Mornington, Victoria, Australia) with 460-490 nm (‘donor emission’) and 520-550 nm (‘acceptor emission’) filters, or a VICTOR Light plate reader (Perkin Elmer, Glen Waverley, Victoria, Australia) with 400-475 nm (‘donor emission’) and 520-540 nm (‘acceptor emission’) filters, or a CLARIOstar plate reader (BMG Labtech, Mornington, Victoria, Australia) with 420-480 nm (‘donor emission’) and 520-620 nm (‘acceptor emission’) filters. […]
(§8) For BRET kinetic assays, the final pre-treatment reading is presented at the zero time point (time of ligand/vehicle addition). […]

[6] = target: T2, CCR2 (Mus musculus, UniProt P51683); details: mouse models of multiple sclerosis, renal ischemia-reperfusion injury, ureteric obstruction, diabetic nephropathy; rat model of arthritis; cited from earlier work
T2 construct: host or cells: mouse models (and one rat model) in vivo
T2 sequence (P51683 whole entry, the tested form may be a part): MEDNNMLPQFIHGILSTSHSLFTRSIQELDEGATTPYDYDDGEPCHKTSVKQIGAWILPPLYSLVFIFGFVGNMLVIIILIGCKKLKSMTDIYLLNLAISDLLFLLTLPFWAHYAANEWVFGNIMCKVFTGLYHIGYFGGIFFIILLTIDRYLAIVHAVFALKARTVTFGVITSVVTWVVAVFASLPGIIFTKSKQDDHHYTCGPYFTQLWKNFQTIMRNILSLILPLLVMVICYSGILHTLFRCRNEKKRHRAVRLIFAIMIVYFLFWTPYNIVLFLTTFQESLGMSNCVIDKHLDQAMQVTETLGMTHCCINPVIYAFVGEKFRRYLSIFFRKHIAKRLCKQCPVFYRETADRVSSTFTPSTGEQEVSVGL

[7] = test system: TRH receptor 1 (TRHR1); test: Receptor-HIT BRET, β-arrestin2/Venus with RAGE/Rluc8 and TRH receptor 1; assay type: cell-based
Text: as §5, §6, §7, §8

[8] = target: T3, orexin receptor 1 (OxR1) (Homo sapiens, UniProt O43613); test: Receptor-HIT BRET, β-arrestin2/Venus with RAGE/Rluc8 and orexin receptor 1; assay type: cell-based
T3 construct: expressed in transfected cells; host or cells: HEK293FT, transient
T3 sequence (O43613 whole entry): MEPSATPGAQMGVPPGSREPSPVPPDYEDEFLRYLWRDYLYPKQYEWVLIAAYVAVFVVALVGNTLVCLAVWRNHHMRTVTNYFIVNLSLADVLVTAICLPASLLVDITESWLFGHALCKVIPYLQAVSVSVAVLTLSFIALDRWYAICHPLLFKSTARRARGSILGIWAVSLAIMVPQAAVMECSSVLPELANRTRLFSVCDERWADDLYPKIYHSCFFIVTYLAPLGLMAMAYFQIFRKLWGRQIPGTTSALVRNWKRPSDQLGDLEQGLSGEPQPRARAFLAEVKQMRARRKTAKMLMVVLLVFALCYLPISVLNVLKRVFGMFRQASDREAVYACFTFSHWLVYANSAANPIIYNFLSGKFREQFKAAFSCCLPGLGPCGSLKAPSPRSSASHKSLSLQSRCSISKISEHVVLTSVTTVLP
T3 sequence (P32121 whole entry partner): as the sequence (P32121 whole entry partner) above
Text: as §5, §6, §7, §8

[9] = target: T4, CCR4 (Homo sapiens, UniProt P51679); test: Receptor-HIT BRET, β-arrestin2/Venus with RAGE/Rluc8 and CCR4; assay type: cell-based
T4 construct: expressed in transfected cells; host or cells: HEK293FT, transient
T4 sequence (P51679 whole entry): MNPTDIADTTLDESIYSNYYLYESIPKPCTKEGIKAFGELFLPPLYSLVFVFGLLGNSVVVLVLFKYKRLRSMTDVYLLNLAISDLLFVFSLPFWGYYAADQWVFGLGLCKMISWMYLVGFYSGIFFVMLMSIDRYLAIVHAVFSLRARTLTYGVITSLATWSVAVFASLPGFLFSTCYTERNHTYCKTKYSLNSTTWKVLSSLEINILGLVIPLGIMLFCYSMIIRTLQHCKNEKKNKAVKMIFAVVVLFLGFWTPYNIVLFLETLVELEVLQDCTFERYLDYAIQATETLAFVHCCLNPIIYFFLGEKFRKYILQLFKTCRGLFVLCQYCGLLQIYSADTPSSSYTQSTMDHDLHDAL
T4 sequence (P32121 whole entry partner): as the sequence (P32121 whole entry partner) above
Text: as §5, §6
Plasmids were transiently co-expressed in human embryonic kidney (HEK) 293FT cells and BRET measurements taken at 37° C. using a POLARstar Omega or LUMIstar plate reader (BMG Labtech, Mornington, Victoria, Australia) with 460-490 nm (‘donor emission’) and 520-550 nm (‘acceptor emission’) filters, or a VICTOR Light plate reader (Perkin Elmer, Glen Waverley, Victoria, Australia) with 400-475 nm (‘donor emission’) and 520-540 nm (‘acceptor emission’) filters, or a CLARIOstar plate reader (BMG Labtech, Mornington, Victoria, Australia) with 420-480 nm (‘donor emission’) and 520-620 nm (‘acceptor emission’) filters.
The BRET ratio was calculated by subtracting the ratio of ‘acceptor emission’ over ‘donor emission’ for a cell sample expressing Rluc8-tagged protein alone from the same ratio for a cell sample expressing both Rluc8 and Venus-tagged proteins. Alternatively, the ligand-induced BRET signal was calculated by subtracting the ratio of ‘acceptor emission’ over ‘donor emission’ for a vehicle-treated cell sample from the same ratio for a second aliquot of the same cells treated with agonist.
For BRET kinetic assays, the final pre-treatment reading is presented at the zero time point (time of ligand/vehicle addition). For the saturation assay, fluorescence after light excitation was measured on an EnVision 2102 multi-label plate reader (PerkinElmer, Glen Waverley, Victoria, Australia) using a 485/14 excitation filter, 535/25 emission filter and D505 mirror. […]

## R366A-Q367A-RAGE362-404: mutated RAGE cytosolic tail peptide in which the charged patch is altered (LWQRAARRGEERKAPENQEEEEERAELNQSEEPEAGESSTGGP; cytosolic tail peptide; UniProt Q15109 362-404, looked up, variant R366A Q367A)
[1]
  overcoming the inhibition of transactivation conferred by mCherry-S391A-RAGE362-404: able to overcome the inhibition

## Q379EEEEERAELNQ390 (QEEEEERAELNQ; listed as Homo sapiens) [RAGE379-390]
[2]
  inhibition of RAGE ligand-independent activation of wild-type RAGE by activated AT1R: inhibiting
[3]
  inhibition of RAGE ligand-dependent activation of wild-type RAGE (S100A8/A9): inhibiting
[4]
  inhibition of Ang II-induced ICAM-1 (acting on wild type RAGE): does not result in a loss of function

## CCL2: monocyte chemotactic protein-1, cognate ligand of CCR2
[5]; control
  recruitment of βarrestin2/Venus to CCR2/Rluc8: recruitment
[5]; in the presence of CCR2
  recruitment of β-arrestin2/Venus proximal to RAGE/Rluc8: recruitment

## Cc1ccc2c(c1)C1(CCN(CCc3nc(-c4ccccc4)oc3C)CC1)OC(=O)N2 [RS-504393]
[6]
  inflammation: suppress inflammation

## RAGE385-390: N-truncated RAGE construct eliminating both 380 and 384 (RAELNQ; UniProt Q15109 385-390, looked up, fragment)
[4]
  inhibition of Ang II-induced ICAM-1 (acting on wild type RAGE): loss of the modulatory actions

## CCO[C@H]1CN(C2CCC(O)(c3ccc4c(c3)OCO4)CC2)C[C@@H]1NC(=O)CNC(=O)c1cccc(C(F)(F)F)c1 (stereo partly drawn) [INCB3344]
[6]
  inflammation: suppress inflammation

## O=C(O)C[CH2][Ge](=[O])[O][Ge](=[O])[CH2]CC(=O)O [propagermanium, 3-[(2-Carboxyethyl-oxogermyl)oxy-oxogermyl]propanoic acid]
[6]
  inflammation: suppress inflammation

## Thyrotrophin-releasing hormone [TRH]
[7]; control
  recruitment of βarrestin2/Venus to TRHR1/Rluc8: recruitment
[7]; in the presence of TRHR1
  recruitment of β-arrestin2/Venus proximal to RAGE/Rluc8: weak recruitment

## Orexin A (QPLPDCCRQKTCSCRLYELLHGAGNHAAGILTL; not fully specified (residue 1, C-terminus, bridges); cysteine pairing not given here; UniProt O43612 34-66, looked up) [OxA]
[8]; control
  recruitment of βarrestin2/Venus to OxR1/Rluc8: recruitment
[8]; in the presence of OxR1
  recruitment of β-arrestin2/Venus proximal to RAGE/Rluc8: recruitment

## RAGE370-404: N-truncated RAGE peptide without the charged patch Diaph1 binding domain (GEERKAPENQEEEEERAELNQSEEPEAGESSTGGP; UniProt Q15109 370-404, looked up, fragment)
[1]
  overcoming the inhibition of transactivation conferred by mCherry-S391A-RAGE362-404: able to overcome the inhibition

B1: CCL22: chemokine ligand used to activate CCR4 (protein)
chain: GPYGANMEDSVCCRDYVRYRLPLRVVKHFYWTSDSCPRPGVVLLTFRDKEICADPRVPWVKMILNKLSQ
[9]; control
  recruitment of βarrestin2/Venus to CCR4/Rluc8: recruitment
[9]; in the presence of CCR4
  recruitment of β-arrestin2/Venus proximal to RAGE/Rluc8: not and Lack of
[9]; untagged CCR4 co-expressed
  BRET signal between Gαi/Nluc and Gγ2/Venus: observed
